Laboratory results published in patent publication US11484561B2, “Morus extracts rich in N-acids of imino sugars and or pipecolic acids” (Phynova Limited, priority 2011, dated 2022).

Key:
glycogen phosphorylase = assay: Glycogen phosphorylase assay; format: biochemical; details: words, no concentration
[1] = molecular target: T1, α-D-mannosidase (Jack bean) (Canavalia ensiformis, UniProt C0HJB3); details: typical DNJ inhibitory activity shown for reference, in words; cited from earlier work
T1 construct: purchased Sigma-Aldrich
T1 sequence (C0HJB3 1-562 limits assumed): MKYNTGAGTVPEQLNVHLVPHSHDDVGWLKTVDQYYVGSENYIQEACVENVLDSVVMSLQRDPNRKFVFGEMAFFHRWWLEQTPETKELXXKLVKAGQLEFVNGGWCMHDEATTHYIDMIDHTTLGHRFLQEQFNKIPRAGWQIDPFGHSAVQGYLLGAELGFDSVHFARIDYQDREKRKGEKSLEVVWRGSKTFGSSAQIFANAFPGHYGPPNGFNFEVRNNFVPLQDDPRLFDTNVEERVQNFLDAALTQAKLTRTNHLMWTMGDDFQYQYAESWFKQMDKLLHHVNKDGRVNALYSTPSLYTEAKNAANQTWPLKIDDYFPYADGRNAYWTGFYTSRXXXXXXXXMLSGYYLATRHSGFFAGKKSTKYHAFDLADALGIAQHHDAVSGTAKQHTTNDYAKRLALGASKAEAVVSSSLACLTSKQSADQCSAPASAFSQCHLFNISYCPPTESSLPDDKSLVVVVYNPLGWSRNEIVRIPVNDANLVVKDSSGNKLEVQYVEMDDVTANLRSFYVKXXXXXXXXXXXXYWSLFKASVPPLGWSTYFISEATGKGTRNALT

[2] = system: β-D-mannosidase Cellulomonas fimi; design: key: NI = no inhibition; details: typical DNJ inhibitory activity shown for reference, in words; cited from earlier work
α-D-glucosidase (rice) = molecular target: T2, α-D-glucosidase (rice) (Oryza sativa subsp. japonica, UniProt Q653V7); details: typical DNJ inhibitory activity shown for reference, in words; cited from earlier work
T2 construct: purchased Sigma-Aldrich

[3] = system: N-acetyl-β-D-gluc (Jack bean); design: key: NI = no inhibition; details: typical DNJ inhibitory activity shown for reference, in words; cited from earlier work
[4] = system: α-D-glucosidase (Bacillus); details: typical DNJ inhibitory activity shown for reference, in words; cited from earlier work
[5] = system: naringinase (P. decumbens); design: key: NI = no inhibition; details: typical DNJ inhibitory activity shown for reference, in words; cited from earlier work
[6] = molecular target: T3, β-D-galactosidase (bovine) (Bos taurus, UniProt Q58D55); design: key: NI = no inhibition; details: typical DNJ inhibitory activity shown for reference, in words; cited from earlier work
T3 construct: purchased Sigma-Aldrich
T3 sequence (Q58D55 28-653): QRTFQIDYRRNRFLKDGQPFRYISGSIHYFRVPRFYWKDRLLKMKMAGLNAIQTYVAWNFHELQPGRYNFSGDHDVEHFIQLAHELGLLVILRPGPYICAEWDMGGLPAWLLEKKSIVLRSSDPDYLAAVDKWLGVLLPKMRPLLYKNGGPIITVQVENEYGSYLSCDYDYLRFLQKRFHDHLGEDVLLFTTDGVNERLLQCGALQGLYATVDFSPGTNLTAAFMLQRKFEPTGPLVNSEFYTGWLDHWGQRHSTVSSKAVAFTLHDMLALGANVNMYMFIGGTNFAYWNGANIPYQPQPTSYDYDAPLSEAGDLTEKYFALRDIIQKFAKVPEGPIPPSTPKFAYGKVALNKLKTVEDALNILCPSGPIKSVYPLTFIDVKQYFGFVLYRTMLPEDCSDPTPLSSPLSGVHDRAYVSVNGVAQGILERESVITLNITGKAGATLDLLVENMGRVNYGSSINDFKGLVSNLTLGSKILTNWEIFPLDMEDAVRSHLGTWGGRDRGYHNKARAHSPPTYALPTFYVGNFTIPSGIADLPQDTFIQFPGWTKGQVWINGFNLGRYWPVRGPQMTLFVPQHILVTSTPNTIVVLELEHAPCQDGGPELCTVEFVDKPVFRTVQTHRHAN

[7] = system: N-acetyl-β-D-gluc (Bovine kidney); design: key: NI = no inhibition; details: typical DNJ inhibitory activity shown for reference, in words; cited from earlier work

T2 sequence (Q653V7 34-885): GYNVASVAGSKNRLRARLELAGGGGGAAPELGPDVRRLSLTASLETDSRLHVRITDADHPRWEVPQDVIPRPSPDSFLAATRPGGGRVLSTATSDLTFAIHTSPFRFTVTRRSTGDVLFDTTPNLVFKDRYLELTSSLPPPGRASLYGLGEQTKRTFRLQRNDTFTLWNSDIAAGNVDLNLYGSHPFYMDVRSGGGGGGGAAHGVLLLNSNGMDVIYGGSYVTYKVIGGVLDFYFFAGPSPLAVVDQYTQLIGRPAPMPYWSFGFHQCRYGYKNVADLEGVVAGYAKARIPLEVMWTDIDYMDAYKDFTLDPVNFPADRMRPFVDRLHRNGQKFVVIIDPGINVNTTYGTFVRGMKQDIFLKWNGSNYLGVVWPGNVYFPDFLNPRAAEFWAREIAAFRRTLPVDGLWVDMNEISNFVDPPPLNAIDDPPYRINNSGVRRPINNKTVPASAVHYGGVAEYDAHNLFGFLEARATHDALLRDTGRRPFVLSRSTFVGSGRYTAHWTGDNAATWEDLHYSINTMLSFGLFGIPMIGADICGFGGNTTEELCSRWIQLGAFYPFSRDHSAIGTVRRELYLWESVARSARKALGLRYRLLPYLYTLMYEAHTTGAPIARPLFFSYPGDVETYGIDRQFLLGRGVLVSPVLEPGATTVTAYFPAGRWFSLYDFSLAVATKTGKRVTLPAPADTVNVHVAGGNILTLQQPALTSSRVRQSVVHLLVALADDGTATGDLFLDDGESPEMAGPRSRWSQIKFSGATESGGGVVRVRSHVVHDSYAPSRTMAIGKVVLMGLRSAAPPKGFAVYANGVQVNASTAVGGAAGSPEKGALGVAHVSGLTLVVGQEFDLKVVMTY

OC[C@H]1NC[C@H](O)[C@@H](O)[C@@H]1O [DNJ, 1 deoxynojirmycin]
glycogen phosphorylase inhibition (glycogen phosphorylase): do not inhibit | α-D-man Jack bean, typical DNJ inhibitory activity [1]: weak | β-D-man Cellulomonas, typical DNJ inhibitory activity [2]: NI | α-D-glu rice, typical DNJ inhibitory activity (α-D-glucosidase (rice)): potent | N-acetyl-β-D-gluc (Jack bean), typical DNJ inhibitory activity [3]: NI | α-D-glu Bacillus, typical DNJ inhibitory activity [4]: potent | naringinase Penecillium, typical DNJ inhibitory activity [5]: NI | β-D-gal bovine, typical DNJ inhibitory activity [6]: NI | N-acetyl-β-D-gluc (Bovine kidney, typical DNJ inhibitory activity) [7]: NI
